From paper PMC9000482, “Inhibition of Aldose Reductase by Ginsenoside Derivatives via a Specific Structure Activity Relationship with Kinetics Mechanism and Molecular Docking Study” (Molecules, 2022)
Where two headings read alike, the source gives them in different places. Marks after values point to notes of the source that are not given here.

Assays:
[1] = target: T1, rat lens aldose reductase (RLAR) (Rattus norvegicus, UniProt P07943); experiment: RLAR inhibitory activity assay (rat lens homogenate, DL-glyceraldehyde substrate); type: biochemical; details: for RLAR inhibitory activity (in words): at the concentrations tested
T1 construct: from tissue; host or cells: lens of Sprague-Dawley rats (supernatant of homogenate)
Experimental: A rat lens homogenate was prepared with minor modifications according to the method reported by Hayman et al.. Briefly, the lenses were removed from the eyes of Sprague-Dawley rats weighing 250–280 g. They were homogenized in sodium phosphate buffer (pH 6.2) that was prepared with dibasic sodium phosphate (Na2HPO4∙H2O, 0.66 g) and monobasic sodium phosphate (NaH2PO4∙H2O, 1.27 g) in 100 mL of double-distilled H2O. The homogenate was clarified by centrifugation at 10,000 rpm at 4 °C for 20 min and the resultant supernatant was frozen until use. A crude AR homogenate with a specific activity of 6.5 U/mg was used in all enzyme inhibition evaluations. The reaction solution consisted of 620 µL of 100 mM sodium phosphate buffer (pH 6.2), 90 µL of AR homogenate, 90 µL of 1.6 mM NADPH, and 9 µL of sample, while the substrate included 90 µL of 50 mM DL-glyceraldehyde. […] AR activity was determined by measuring the decrease in NADPH absorption at 340 nm over a 4 min period on an Ultrospec®2100pro UV/Visible spectrophotometer. SWIFT II Applications software (Amersham Biosciences, NJ, USA) was used for all data analyses. The inhibition percentage (%) was calculated as follows in Equation (1):[1 − (∆Asample/min − ∆Ablank/min)/(∆Acontrol/min − ∆Ablank/min)] × 100(1) in which ∆Asample/min represents the test sample and substrate’s reduction in absorbance over 4 min, and ∆A control/min represents the same reduction in absorbance, but with 100% DMSO (dimethyl sulfoxide) rather than the test sample.

[2] = target: T2, human recombinant aldose reductase (HRAR) (Homo sapiens, UniProt P15121); experiment: HRAR inhibition assay (DL-glyceraldehyde substrate); type: biochemical; details: for HRAR inhibitory activity (in words): at the concentrations tested
T2 construct: purchased Wako Chemicals (Osaka, Japan)
Experimental: HRAR inhibition was studied according to Nishimura et al.. AR action was studied by measuring the reduction in NADPH absorption at 340 nm over a period of 1 min on a UV/visible spectrophotometer (Ultrospec®2100pro, Biochrom, Holliston, MA, USA). For HRAR inhibition, the HRAR enzyme (0.4 units), was used in all enzyme inhibition evaluations. […] The inhibition percentage (%) was measured as designated in the RLAR assay. The DA sample/min value characterizes the decrease in absorbance for 1 min with the test samples and substrate. The ability of each sample to inhibit HRAR was observed as an IC50 value (µM) and measured from the log-dose inhibition curve.

[3] = test system: sorbitol accumulation in rat lens; experiment: Lens culture and intracellular sorbitol measurement (ex vivo); type: cell-based, Sprague-Dawley rats; details: 25 mM glucose, 6 days, sample 5 μg/mL, mean ± SD (n = 3)
[4] = rat lens homogenate, substrate DL-glyceraldehyde, mean ± S.E.M. of triplicate experiments, read-out: RLAR IC50
[5] = substrate DL-glyceraldehyde, mean ± S.E.M. of triplicate experiments, read-out: HRAR IC50

In the case of CC(C)=CCC[C@](C)(O[C@@H]1O[C@H](CO[C@@H]2OC[C@H](O[C@@H]3OC[C@@H](O)[C@H](O)[C@H]3O)[C@H](O)[C@H]2O)[C@@H](O)[C@H](O)[C@H]1O)[C@H]1CC[C@]2(C)[C@@H]1[C@H](O)C[C@@H]1[C@@]3(C)CC[C@H](O[C@@H]4O[C@H](CO)[C@@H](O)[C@H](O)[C@H]4O[C@@H]4O[C@H](CO)[C@@H](O)[C@H](O)[C@H]4O)C(C)(C)[C@@H]3CC[C@]12C [Ginsenoside Ra1], the “RLAR inhibitory activity (in words)” value [1] is reported as “inactive”, the IC50 [1, 4] is reported as over 200 µM and the IC50 [2, 5] is reported as 75.6 ± 4.33 µM.
CC(C)=CCC[C@](C)(O[C@@H]1O[C@H](CO[C@@H]2O[C@@H](CO)[C@H](O)[C@H]2O[C@@H]2OC[C@@H](O)[C@H](O)[C@H]2O)[C@@H](O)[C@H](O)[C@H]1O)[C@H]1CC[C@]2(C)[C@@H]1[C@H](O)C[C@@H]1[C@@]3(C)CC[C@H](O[C@@H]4O[C@H](CO)[C@@H](O)[C@H](O)[C@H]4O[C@@H]4O[C@H](CO)[C@@H](O)[C@H](O)[C@H]4O)C(C)(C)[C@@H]3CC[C@]12C [Ginsenoside Ra2] was tested, and the IC50 [1, 4] was 178 ± 7.39 µM and the IC50 [2, 5] was 82.43 ± 0.44 µM.
Work on CC(C)=CCC[C@](C)(O[C@@H]1O[C@H](CO[C@@H]2O[C@H](CO)[C@@H](O)[C@H](O)[C@H]2O)[C@@H](O)[C@H](O)[C@H]1O)[C@H]1CC[C@]2(C)[C@@H]1[C@H](O)C[C@@H]1[C@@]3(C)CC[C@H](O[C@@H]4O[C@H](CO)[C@@H](O)[C@H](O)[C@H]4O[C@@H]4O[C@H](CO)[C@@H](O)[C@H](O)[C@H]4O)C(C)(C)[C@@H]3CC[C@]12C [Ginsenoside Rb1] yielded an IC50 [1, 4] of 103 ± 7.45 µM and an IC50 [2, 5] of 93.3 ± 5.76 µM.
With CC(C)=CCC[C@](C)(O[C@@H]1O[C@H](CO[C@@H]2OC[C@H](O)[C@H](O)[C@H]2O)[C@@H](O)[C@H](O)[C@H]1O)[C@H]1CC[C@]2(C)[C@@H]1[C@H](O)C[C@@H]1[C@@]3(C)CC[C@H](O[C@@H]4O[C@H](CO)[C@@H](O)[C@H](O)[C@H]4O[C@@H]4O[C@H](CO)[C@@H](O)[C@H](O)[C@H]4O)C(C)(C)[C@@H]3CC[C@]12C [Ginsenoside Rb2] the IC50 [1, 4] was 121 ± 3.43 µM, the “HRAR inhibitory activity (in words)” value [2] was “inactive” and the IC50 [2, 5] was over 100 µM.
For CC(C)=CCC[C@](C)(O[C@@H]1O[C@H](CO[C@@H]2OC[C@@H](O)[C@H](O)[C@H]2O)[C@@H](O)[C@H](O)[C@H]1O)[C@H]1CC[C@]2(C)[C@@H]1[C@H](O)C[C@@H]1[C@@]3(C)CC[C@H](O[C@@H]4O[C@H](CO)[C@@H](O)[C@H](O)[C@H]4O[C@@H]4O[C@H](CO)[C@@H](O)[C@H](O)[C@H]4O)C(C)(C)[C@@H]3CC[C@]12C [Ginsenoside Rb3], the IC50 [1, 4] was 117 ± 6.89 µM and the IC50 [2, 5] was 79 ± 4.55 µM.
In the case of CC(C)=CCC[C@](C)(O[C@@H]1O[C@H](CO[C@@H]2O[C@@H](CO)[C@H](O)[C@H]2O)[C@@H](O)[C@H](O)[C@H]1O)[C@H]1CC[C@]2(C)[C@@H]1[C@H](O)C[C@@H]1[C@@]3(C)CC[C@H](O[C@@H]4O[C@H](CO)[C@@H](O)[C@H](O)[C@H]4O[C@@H]4O[C@H](CO)[C@@H](O)[C@H](O)[C@H]4O)C(C)(C)[C@@H]3CC[C@]12C [Ginsenoside Rc], the “RLAR inhibitory activity (in words)” value [1] is reported as “inactive”, the IC50 [1, 4] is reported as over 200 µM and the IC50 [2, 5] is reported as 56.6 ± 2.19 µM.
In the case of CC(C)=CCC[C@](C)(O[C@@H]1O[C@H](CO)[C@@H](O)[C@H](O)[C@H]1O)[C@H]1CC[C@]2(C)[C@@H]1[C@H](O)C[C@@H]1[C@@]3(C)CC[C@H](O[C@@H]4O[C@H](CO)[C@@H](O)[C@H](O)[C@H]4O[C@@H]4O[C@H](CO)[C@@H](O)[C@H](O)[C@H]4O)C(C)(C)[C@@H]3CC[C@]12C [Ginsenoside Rd], the IC50 [1, 4] is reported as 89.6 ± 2.99 µM and the IC50 [2, 5] is reported as 37.5 ± 1.33 µM.
CC(C)=CCC[C@](C)(O[C@@H]1O[C@H](CO)[C@@H](O)[C@H](O)[C@H]1O)[C@H]1CC[C@]2(C)[C@@H]1[C@H](O)C[C@@H]1[C@@]3(C)CC[C@H](O)C(C)(C)[C@@H]3[C@@H](O[C@@H]3O[C@H](CO)[C@@H](O)[C@H](O)[C@H]3O[C@@H]3O[C@@H](C)[C@H](O)[C@@H](O)[C@H]3O)C[C@]12C [Ginsenoside Re] gave an IC50 [1, 4] of 81.3 ± 2.18 µM and an IC50 [2, 5] of 43.4 ± 3.11 µM.
CC(C)=CCC[C@](C)(O[C@@H]1O[C@H](CO)[C@@H](O)[C@H](O)[C@H]1O)[C@H]1CC[C@]2(C)[C@@H]1[C@H](O)C[C@@H]1[C@@]3(C)CC[C@H](O)C(C)(C)[C@@H]3[C@@H](O[C@@H]3O[C@H](CO)[C@@H](O)[C@H](O)[C@H]3O)C[C@]12C [Ginsenoside Rg1] showed an IC50 [1, 4] of 49.5 ± 1.88 µM and an IC50 [2, 5] of 27.6 ± 2.12 µM.
CC(C)=CC/C=C(\C)[C@H]1CC[C@]2(C)[C@@H]1[C@H](O)C[C@@H]1[C@@]3(C)CC[C@H](O[C@@H]4O[C@H](CO)[C@@H](O)[C@H](O)[C@H]4O[C@@H]4O[C@H](CO)[C@@H](O)[C@H](O)[C@H]4O)C(C)(C)[C@@H]3CC[C@]12C [Ginsenoside Rg5] showed an IC50 [1] of 54.5 ± 1.22 µM and an IC50 [2] of 38.6 ± 2.91 µM.
With CC(=O)OC[C@H]1O[C@@H](O[C@H]2[C@H](O[C@H]3CC[C@@]4(C)C(CC[C@]5(C)C4C[C@@H](O)[C@@H]4C([C@](C)(CCC=C(C)C)O[C@@H]6O[C@H](CO[C@@H]7OC[C@H](O)[C@H](O)[C@H]7O)[C@@H](O)[C@H](O)[C@H]6O)CC[C@]45C)C3(C)C)O[C@H](CO)[C@@H](O)[C@@H]2O)[C@H](O)[C@@H](O)[C@@H]1O (some centres unmarked) [Ginsenoside Rs1] the IC50 [1, 4] was 143 ± 3.77 µM, the “HRAR inhibitory activity (in words)” value [2] was “inactive” and the IC50 [2, 5] was over 100 µM.
With CC(=O)OC[C@H]1O[C@@H](O[C@H]2[C@H](O[C@H]3CC[C@@]4(C)C(CC[C@]5(C)C4C[C@@H](O)[C@@H]4C([C@](C)(CCC=C(C)C)O[C@@H]6O[C@H](CO[C@@H]7O[C@@H](CO)[C@H](O)[C@H]7O)[C@@H](O)[C@H](O)[C@H]6O)CC[C@]45C)C3(C)C)O[C@H](CO)[C@@H](O)[C@@H]2O)[C@H](O)[C@@H](O)[C@@H]1O (some centres unmarked) [Ginsenoside Rs2] the IC50 [1, 4] was 149 ± 4.22 µM, the “HRAR inhibitory activity (in words)” value [2] was “inactive” and the IC50 [2, 5] was over 100 µM.
With O=c1c(O)c(-c2ccc(O)c(O)c2)oc2cc(O)cc(O)c12 [Quercetin, reference compound] the “Sorbitol Content (mg)/Lens Wet Weight (g)” value [3] was 0.22 ± 0.01 ^a mg/g and the inhibition at 5 µg/mL ([3]; Rattus norvegicus, 144 h) was 87.2 ± 3.91%.
Molecule O=C(O)Cn1c(=O)n(Cc2ccc(Br)cc2F)c(=O)c2ccc(Cl)cc21 [Zenaresta, Zenarestat, reference compound] has an IC50 [2] of 0.69 ± 0.11 µM.
